Laboratory results: ChEMBL document CHEMBL3045995, “Novel antifeeding limonoids from Dysoxylum hainanense” (2002)

system: Pieris rapae; assay: Antifeeding activity against fifth-instar larvae Pieris rapae in compound treated Brassica oleracea L leaf disk at 500 ppm measured after 24 hr relative to control; type: functional

In order of falling FDI:
1. C/C=C(\C)C(=O)O[C@H]1C[C@@H](OC(C)=O)[C@@]2(C(=O)OC)CO[C@H]3[C@@H](O)[C@@](C)([C@]45O[C@@]4(C)[C@@H]4C[C@H]5O[C@@H]5OC=C[C@@]54O)[C@H]4[C@]1(CO[C@]4(O)C(=O)OC)[C@@H]32 [AZADIRACHTIN A]  100%
2. C=C1[C@@H]([C@]2(C)[C@H]3CC(=O)O[C@@]3(C)CO[C@@H]2CC(=O)O)[C@@H](O)[C@H](OC(=O)C(O)C(C)C)[C@@]2(C)[C@H](c3ccoc3)[C@@H](O)[C@H]3O[C@]132 (stereo partly specified) [DYSOXYLUMIC ACID A]  78.7%
3. C=C1[C@@H]([C@@]2(C)[C@@H](OC(C)=O)CC(=O)O[C@](C)(COC(C)=O)[C@@H]2CC(=O)OC)[C@@H](OC=O)[C@H](OC(=O)[C@H](O)C(C)C)[C@@]2(C)[C@@H](c3ccoc3)[C@@H](OC(=O)[C@H](OC(C)=O)C(C)C)[C@H]3O[C@]132 [DYSOXYLUMINS B]  77.4%
4. C=C1[C@@H]([C@@]2(C)[C@@H](OC(C)=O)CC(=O)O[C@](C)(COC(C)=O)[C@@H]2CC(=O)OC)[C@@H](OC=O)[C@H](OC(=O)[C@H](O)C(C)C)[C@@]2(C)[C@@H](c3ccoc3)[C@@H](OC(=O)[C@H](O)C(C)C)[C@H]3O[C@]132 [DYSOXYLUMINS C]  74.9%
5. C=C1[C@@H]([C@@]2(C)[C@@H](OC(C)=O)CC(=O)O[C@](C)(COC(C)=O)[C@@H]2CC(=O)OC)[C@@H](OC=O)[C@H](OC(=O)[C@H](O)C(C)C)[C@@]2(C)[C@@H](c3ccoc3)[C@@H](OC(=O)[C@@H](C)CC)[C@H]3O[C@]132 [DYSOXYLUMINS A]  73.8%
6. C=C1[C@@H]([C@]2(C)[C@H]3CC(=O)O[C@@]3(C)CO[C@@H]2CC(=O)O)[C@@H](O)[C@H](OC(=O)C(O)C(C)C)[C@@]2(C)[C@H](C3=CC(O)OC3=O)[C@@H](O)[C@H]3O[C@]132 (stereo partly specified) [DYSOXYLUMIC ACID B]  64.1%
7. C=C1[C@@H]2[C@@H](O[C@@H](CC(=O)O)[C@@]2(C)[C@H]2CC(=O)O[C@]2(C)CO)[C@H](OC(=O)C(O)C(C)C)[C@@]2(C)[C@H](c3ccoc3)[C@@H](O)[C@H]3O[C@]132 (stereo partly specified) [DYSOXYLUMIC ACID C]  59.4%
8. CC(=O)O[C@@H]1[C@H]2C(=C3[C@H](O)[C@H](O)[C@@H](c4ccoc4)[C@]3(C)[C@H]1OC(=O)C(O)C(C)C)COC(=O)C[C@@H](OC(=O)C(O)C(C)C)[C@@]2(C)[C@@H](CC(=O)O)C(C)(O)CO (stereo partly specified) [DYSOXYLUMIC ACID D]  29.5%
9. CC(C)C(O)C(=O)O[C@H]1[C@H](O)[C@H]2C(=C3[C@H](O)[C@H](O)[C@@H](c4ccoc4)[C@@]31C)COC(=O)C[C@@H](OC(=O)C(O)C(C)C)[C@@]2(C)[C@H]1CC(=O)OC[C@@]1(C)O (stereo partly specified) [DYSOXYLUMOLIDE B]  28.3%
10. C=C1[C@@H]2[C@@H](O[C@H]3CC(=O)O[C@@]4(C)COC(=O)C[C@@H]4[C@]32C)[C@H](OC(=O)C(O)C(C)C)[C@@]2(C)[C@H](c3ccoc3)[C@@H](OC(=O)C(O)C(C)C)[C@H]3O[C@]132 (stereo partly specified) [DYSOXYLUMOLIDE A]  27.9%
11. CC(C)C(O)C(=O)OC(C(=O)O[C@@H]1[C@H](O)[C@@H]2[C@](C)(/C=C\C(=O)OC[C@@]2(C)O)[C@H]2CC[C@@]3(C)[C@H](c4ccoc4)OC(=O)[C@H]4O[C@]43[C@]12C)C(C)C (stereo partly specified) [DYSOXYLUMOLIDE C]  22.4%
